Reference: US20020183309A1, “Novel amines as histamine-3 receptor ligands and their therapeutic applications” (priority 2001, published 2002)
Like-named read-outs stand apart in the source and are kept apart here.

Biological target: T1, histamine-3 receptors (H3 receptor) (Rattus norvegicus, UniProt Q9QYN8)
T1 construct: from tissue; host or cells: male Sprague-Dawley rat brain cortex membranes
Assay: (3H)-N-α-methylhistamine binding to rat cortical membranes
Description: Briefly, male Sprague-Dawley rat brain cortices were homogenized (1 g tissue/10 mL buffer) in 50 mM Tris-HCl/5 mM EDTA containing protease inhibitor cocktail (Calbiochem) using a polytron set at 20,500 rpm. Homogenates were centrifuged for 20 minutes at 40,000×g. The supernatant was decanted, and pellets were weighed. The pellet was resuspended by polytron homogenization in 40 mL 50 mM Tris-HCl/5 mM EDTA with protease inhibitors and centrifuged for 20 minutes at 40,000×g. […] Rat cortical membranes (12 mg wet weight/tube) were incubated with (^3H)-N-α-methylhistamine (˜0.6 nM) with or without H3 receptor antagonists in a total incubation volume of 0.5 mL of 50 mM Tris-HCl/5 mM EDTA (pH 7.7). Test compounds were dissolved in DMSO to provide a 20 mM solution, serially diluted and then added to the incubation mixtures prior to initiating the incubation assay by addition of the membranes. Thioperamide (3 μM) was used to determine nonspecific binding. Binding incubations were conducted for 30 minutes at 25° C. and terminated by addition of 2 mL of ice cold 50 mM Tris-HCl (pH 7.7) and filtration through 0.3% polyethylenimine-soaked Unifilter plates (Packard). These filters were washed 4 additional times with 2 mL of ice-cold 50 mM Tris-HCl and dried for 1 hour. Radioactivity was determined using liquid scintillation counting techniques. Results were analyzed by Hill transformation and Ki values were determined using the Cheng-Prusoff equation.

[1] = male Sprague-Dawley rat brain cortical membranes, (3H)-N-α-methylhistamine ~0.6 nM, 30 minutes at 25° C., Cheng-Prusoff equation, read-out: Ki

T1 sequence (Q9QYN8 whole entry): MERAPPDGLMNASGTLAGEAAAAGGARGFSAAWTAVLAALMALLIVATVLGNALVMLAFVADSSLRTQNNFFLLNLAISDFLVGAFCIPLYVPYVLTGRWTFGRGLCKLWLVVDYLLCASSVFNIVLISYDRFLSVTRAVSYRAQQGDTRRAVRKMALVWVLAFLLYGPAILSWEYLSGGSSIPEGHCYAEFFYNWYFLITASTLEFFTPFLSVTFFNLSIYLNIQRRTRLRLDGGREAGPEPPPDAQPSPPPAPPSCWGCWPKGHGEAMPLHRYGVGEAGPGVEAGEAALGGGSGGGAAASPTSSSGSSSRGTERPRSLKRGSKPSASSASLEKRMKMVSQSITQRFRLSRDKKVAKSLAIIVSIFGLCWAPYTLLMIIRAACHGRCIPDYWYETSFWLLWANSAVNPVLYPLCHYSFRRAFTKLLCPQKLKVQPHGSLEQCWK

Compound	Ki [1] [nM]	Ki [nM]
N#Cc1ccc(-c2ccc3oc(CCN4CC[C@@H](O)C4)cc3c2)cc1 [Example 7, 4-(2-{2-[(3R)-3-hydroxypyrrolidinyl]ethyl}-1-benzofuran-5-yl)benzonitrile]	94.9	
CCN(CC)CCc1c(C)c2cc(-c3ccc(C#N)cc3)ccc2oc1=O [Example 43, 4-{3-[2-(diethylamino)ethyl]-4-methyl-2-oxo-2H-chromen-6-yl}benzonitrile]	14.6	
O=C(c1ccc(-c2ccc3oc(CCN4CCOCC4)cc3c2)cc1)N1CCOCC1 [Example 32, 4-(4-{2-[2-(4-morpholine)ethyl]-1-benzofuran-5-yl}benzoyl)morpholine]	265	
N#Cc1ccc(-c2ccc3oc(CCN4CC=CCC4)cc3c2)cc1 [Example 16, 4-{2-[2-(3,6-dihydro-1(2H)-pyridinyl)ethyl]-1-benzofuran-5-yl}benzonitrile]	92.2	
O=C(c1ccc(-c2ccc3oc(CCN4CCCCC4)cc3c2)cc1)N1CCOCC1 [Example 24, 4-(4-{2-[2-(1-piperidinyl)ethyl]-1-benzofuran-5-yl}benzoyl)morpholine]	11.7	
O=C(c1ccc(-c2ccc3oc(CCN4CCCCC4)cc3c2)nc1)N1CCOCC1 [Example 46, 4-[(6-{2-[2-(1-piperidinyl)ethyl]-1-benzofuran-5-yl}-3-pyridinyl)carbonyl]morpholine]	18.5	
Cc1c(CCN2CCCC2)c(=O)oc2ccc(-c3ccc(C#N)cc3)cc12 [Example 41, 4-{4-methyl-2-oxo-3-[2-(1-pyrolidinyl)ethyl]-2H-chromen-6-yl}benzonitrile]	51.5	
COC(=O)[C@@H]1CCCN1CCc1cc2cc(-c3ccc(C#N)cc3)ccc2o1 [Example 15, 4-(2-{2-[2-pyrrolidinemethyl carboxylate]ethyl}-1-benzofuran-5-yl)benzonitrile]	1000	
CC1CCCN1CCc1cc2cc(-c3ccc(C(=O)N4CCOCC4)cc3)ccc2o1 (stereo not drawn) [Example 23, 4-(4-{2-[2-(2-methyl-1-pyrrolidinyl)ethyl]-1-benzofuran-5-yl}benzoyl)morpholine]	1.97	
CN(C)[C@@H]1CCN(CCc2cc3cc(-c4ccc(C#N)cc4)ccc3o2)C1 [Example 66, 4-(2-{2-[(3R)-3-(dimethylamino)pyrrolidinyl]ethyl}-1-benzofuran-5-yl)benzonitrile]		90.4
CN(C)[C@H]1CCN(CCc2cc3cc(-c4ccc(C#N)cc4)ccc3o2)C1 [Example 9, 4-(2-{2-[(3S)-3-(dimethylamino)pyrrolidinyl]ethyl}-1-benzofuran-5-yl)benzonitrile]		136
O=C(c1ccc(-c2ccc3oc(CCN4CC[C@@H](O)C4)cc3c2)cc1)N1CCOCC1 [Example 27, (3R)-1-(2-{5-[4-(4-morpholinylcarbonyl)phenyl]-1-benzofuran-2-yl}ethyl)-3-pyrrolidinol]	55.4	
CC1CCCCN1CCc1cc2cc(-c3ccc(C(=O)N4CCOCC4)cc3)ccc2o1 (stereo not drawn) [Example 26, 4-(4-{2-[2-(2-methyl1--piperidinyl)ethyl]-1-benzofuran-5-yl}benzoyl)morpholine]	27.2	
CCCN(CC)CCc1cc2cc(-c3ccc(C(=O)N4CCOCC4)cc3)ccc2o1 [Example 40, N-ethyl-N-(2-{5-[4-(4-morpholinylcarbonyl)phenyl]-1-benzofuran-2-yl}ethyl)-N-propylamine]	32.2	

Second part, led by results:

Ki [1] [nM]	Compound	Ki [nM]
59.8	CCN(CC)CCc1cc2cc(-c3ccc(C(=O)N4CCOCC4)cn3)ccc2o1 [Example 47, 4-[(6-{2-[2-(N,N-diethyl)ethyl]-1-benzofuran-5-yl}-3-pyridinyl)carbonyl]morpholine]	
1000	O=C(c1ccc(-c2ccc3oc(CCN4CCC5(CC4)OCCO5)cc3c2)nc1)N1CCOCC1 [Example 60, 8-(2-{5-[5-(4-morpholinylcarbonyl)-2-pyridinyl]-1-benzofuran-2-yl}ethyl)-1,4-dioxa-8-azaspiro[4.5]decane]	
2.8	C[C@@H]1CCCN1CCc1cc2cc(C(=O)c3ccccc3)ccc2o1 [Example 84, (2-{2-[(2R)-2-methyl-1-pyrrolidinyl]ethyl}-1-benzofuran-5-yl)(phenyl)methanone]	
1.6	COc1ccccc1C(=O)c1ccc2oc(CCN3CCC[C@H]3C)cc2c1 [Example 82, (2-methoxyphenyl)(2-{2-[(2R)-2-methyl-1-pyrrolidinyl]ethyl}-1-benzofuran-5-yl)methanone]	
1000	C=CCNCCc1cc2cc(-c3ccc(C(=O)N4CCOCC4)cn3)ccc2o1 [Example 63, N-allyl-N-(2-{5-[5-(4-morpholinylcarbonyl)-2-pyridinyl]-1-benzofuran-2-yl}ethyl)amine]	
133	CN(C)CCc1cc2cc(-c3ccc(C(=O)N4CCOCC4)cn3)ccc2o1 [Example 58, N,N-dimethyl-N-(2-{5-[5-(4-morpholinylcarbonyl)-2-pyridinyl]-1-benzofuran-2-yl}ethyl)amine]	
143	O=C(c1ccc(-c2ccc3oc(CCN4CC5CC4CO5)cc3c2)nc1)N1CCOCC1 (stereo not drawn) [Example 61, 5-(2-{5-[5-(4-morpholinylcarbonyl)-2-pyridinyl]-1-benzofuran-2-yl}ethyl)-2-oxa-5-azabicyclo[2.2.1]heptane]	
3.07	O=C(c1ccc(-c2ccc3oc(CCN4CCCCCC4)cc3c2)nc1)N1CCOCC1 [Example 51, 4-{[6-(2-{2-[1-azepanyl]ethyl}-1-benzofuran-5-yl)-3-pyridinyl]carbonyl}morpholine]	
3.8	C[C@@H]1CCCN1CCc1cc2cc(C(=O)c3ccc(N(C)C)cc3)ccc2o1 [Example 79, [4-(dimethylamino)phenyl](2-{2-[(2R)-2-methyl-1-pyrrolidinyl]ethyl}-1-benzofuran-5-yl)methanone]	
596	CCCNCCc1cc2cc(-c3ccc(C(=O)N4CCOCC4)cn3)ccc2o1 [Example 65, N-(2-{5-[5-(4-morpholinylcarbonyl)-2-pyridinyl]-1-benzofuran-2-yl}ethyl)-N-propylamine]	
1.1	COc1cccc(C(=O)c2ccc3oc(CCN4CCC[C@H]4C)cc3c2)c1 [Example 83, (3-methoxyphenyl)(2-{2-[(2R)-2-methyl-1-pyrrolidinyl]ethyl}-1-benzofuran-5-yl)methanone]	
4	CCC(CC)CC(=O)c1ccc2oc(CCN3CCC[C@H]3C)cc2c1 [Example 76, 3-ethyl-1-(2-{2-[(2R)-2-methyl-1-pyrrolidinyl]ethyl}-1-benzofuran-5-yl)-1-pentanone]	
6	Cc1cc(C(=O)c2ccc3oc(CCN4CCC[C@H]4C)cc3c2)ccc1Cl [Example 77, (4-chloro-3-methylphenyl)(2-{2-[(2R)-2-methyl-1-pyrrolidinyl]ethyl}-1-benzofuran-5-yl)methanone]	
162	CC1CCN(CCc2cc3cc(-c4ccc(C(=O)N5CCOCC5)cn4)ccc3o2)CC1 [Example 52, 4-[(6-{2-[2-(4-methyl-1-piperidinyl)ethyl]-1-benzofuran-5-yl}-3-pyridinyl)carbonyl]morpholine]	
1000	O=C(c1ccc(-c2ccc3oc(CCNCCCO)cc3c2)nc1)N1CCOCC1 [Example 64, 3-[(2-{5-[5-(4-morpholinylcarbonyl)-2-pyridinyl]-1-benzofuran-2-yl}ethyl)amino]-1-propanol]	
197	CN(CCc1cc2cc(-c3ccc(C(=O)N4CCOCC4)cn3)ccc2o1)C(C)(C)C [Example 54, N-(tert-butyl)-N-methyl-N-(2-{5-[5-(4-morpholinylcarbonyl)-2-pyridinyl]-1-benzofuran-2-yl}ethyl)amine]	
